Experimental data reported in BindingDB's records for doi:10.1021/ml400486k (University of California, 2014).

Experiment: Inhibition of Bacillus anthracis lethal toxin-induced mouse RAW264.7 cell death preincubated for 1 hr followed by lethal toxin challenge measured after 4 hrs

Going from Cc1cc(C)c(NC(=O)N/N=C/c2ccc(Br)cc2)c(C)c1 to Cc1cccc(C)c1NC(=O)N/N=C/c1ccc(Br)cc1, the IC50 falls from 12600 nM to 1400 nM (9-fold).

First: CCc1cccc(CC)c1NC(=O)N/N=C/c1ccc(Br)cc1
Second: CCc1ccc(/C=N/NC(=O)Nc2c(C)cccc2C)cc1
The IC50 of the first is higher: greater than 12500 nM for the first, 3000 nM for the second.

First: Cc1cccc(C)c1NC(=O)N/N=C/c1ccc(Br)cc1F
Second: Cc1cccc(C)c1NC(=O)N/N=C/c1ccc(F)cc1F
The IC50 of the first is 5.2-fold lower: 400 nM for the first, 2100 nM for the second.

Going from Cc1cccc(C)c1NC(=O)N/N=C/c1ccc(Cl)cc1 to Cc1cccc(C)c1NC(=O)N/N=C/c1ccc(F)cc1, the IC50 rises from 1700 nM to 7000 nM (4.1-fold).

First: Cc1cccc(C)c1NC(=O)N/N=C/c1ccccc1F
Second: Cc1cccc(C)c1NC(=O)N/N=C/c1ccc(Br)c(F)c1
The IC50 of the first is 5.5-fold higher: 8200 nM for the first, 1500 nM for the second.

Going from Cc1ccc(/C=N/NC(=O)Nc2c(C)cccc2C)cc1F to Cc1cccc(/C=N/NC(=O)Nc2c(C)cccc2C)c1, the IC50 rises from 1800 nM to 13400 nM (7.4-fold).

First: Cc1ccc(/C=N/NC(=O)Nc2c(C)cccc2C)cc1
Second: Cc1cccc(C)c1NC(=O)N/N=C/c1ccc(I)cc1
The IC50 of the first is 1.6-fold higher: 2900 nM for the first, 1800 nM for the second. The second is the more potent here.

First: Cc1cccc(C)c1NC(=O)N/N=C/c1ccc(C(C)C)cc1
Second: COc1ccc(/C=N/NC(=O)Nc2c(C)cccc2C)cc1
The IC50 of the first is lower: 6500 nM for the first, greater than 12500 nM for the second.

C#Cc1ccc(/C=N/NC(=O)Nc2c(C)cccc2C)cc1 and Cc1cccc(C)c1NC(=O)N/N=C/c1ccc(C#N)cc1 are within 1.5-fold of each other in IC50: 1700 nM for the first, 2500 nM for the second.

Cc1cccc(C)c1NC(=O)N/N=C/c1ccc(C(F)(F)F)cc1 and Cc1cccc(C)c1NC(=O)N/N=C/c1ccc(N=[N+]=[N-])cc1 are within 1.5-fold of each other in IC50: 2600 nM for the first, 2800 nM for the second.

Going from Cc1cccc(C)c1NC(=O)N/N=C/c1ccc(Br)o1 to Cc1cccc(C)c1NC(=O)N/N=C/c1ccc(Br)s1, the IC50 falls from greater than 25000 nM to 1700 nM.

Compared with Cc1cccc(C)c1NC(=O)N/N=C/c1cccs1, Cc1cccc(C)c1NC(=O)N/N=C/c1ccc(Br)cc1Cl is lower in IC50: greater than 25000 nM for the first, 3200 nM for the second.

Cc1cccc(C)c1NC(=O)N/N=C/c1c(F)cc(Br)cc1F and Cc1cccc(C)c1NC(=O)N/N=C/c1ccc(Br)c(Cl)c1 are within 1.5-fold of each other in IC50: 4000 nM for the first, 3400 nM for the second.

C/C(=N\NC(=O)Nc1c(C)cccc1C)c1ccc(Br)cc1 and Cc1cccc(C)c1NC(=O)N(C)/N=C/c1ccc(Br)cc1 are within 1.5-fold of each other in IC50: 2500 nM for the first, 2000 nM for the second.

Going from C#CCN(/N=C/c1ccc(Br)cc1)C(=O)Nc1c(C)cccc1C to Cc1cccc(C)c1NC(=S)N/N=C/c1ccc(Br)cc1, the IC50 falls from greater than 12500 nM to 1500 nM.

First: Cc1cccc(C)c1NC(=O)N/N=C/c1ccc(N=[N+]=[N-])cc1F
Second: Cc1cccc(C)c1NC(=O)N/N=C/c1c(F)c(F)c(N=[N+]=[N-])c(F)c1F
The IC50 of the first is lower: 2200 nM for the first, greater than 25000 nM for the second. The first is the more potent here.

Work on Cc1cccc(C)c1/N=C(\N)N/N=C/c1ccc(Br)cc1 yielded an IC50 of 13800 nM.
